Test results taken from patent US20250163104A1, “MACROCYCLIC IMMUNOMODULATORS” (priority 2021, published 2025).
Where a SMILES comes first, the peptide text is derived from it. Bridges are numbered along the chain shown (N, C = ends). [ ]: non-standard residue; d: D form. The star is where a group is joined. ξ: configuration not given here. Bip = N[C@@H](Cc1ccc(-c2ccccc2)cc1)C(=O)O; Phe(3-Me) = Cc1cccc(C[C@H](N)C(=O)O)c1; hArg = N=C(N)NCCCC[C@H](N)C(=O)O; Cha = N[C@@H](CC1CCCCC1)C(=O)O; Cit = NC(=O)NCCC[C@H](N)C(=O)O; Thr(3ξ) = CC(O)[C@H](N)C(=O)O; Carboxymethyl = O=C(O)C*; Orn = NCCC[C@H](N)C(=O)O; Dab = NCC[C@H](N)C(=O)O; ξV = CC(C)C(N)C(=O)O; ξS = NC(CO)C(=O)O

These compounds were tested against T1, human PD-1 / PD-L1-Ig binding on Jurkat cell line over-expressing human PD-1 (Jurkat-PD-1) (Homo sapiens, UniProt Q15116) (assay: Jurkat-PD-1 Cell Binding High-Content Screening Assay (CBA)). Details: Jurkat-PD-1 cells, PE-labeled PD-L1-Ig 20 nM final; read-out: Jurkat HPD1_PDL1 IC50.
T1 construct: expressed in transfected cells; host or cells: Jurkat
T1 sequence (Q15116 25-288): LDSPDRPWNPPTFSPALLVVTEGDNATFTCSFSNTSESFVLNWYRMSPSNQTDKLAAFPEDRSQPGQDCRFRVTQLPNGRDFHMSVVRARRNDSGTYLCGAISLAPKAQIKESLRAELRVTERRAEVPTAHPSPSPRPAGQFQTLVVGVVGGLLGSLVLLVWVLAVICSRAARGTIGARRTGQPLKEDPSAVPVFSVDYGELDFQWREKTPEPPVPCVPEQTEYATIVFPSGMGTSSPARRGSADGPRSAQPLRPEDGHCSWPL
Format: cell-based
Method in brief: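 Binding of fluorescent PD-L1-Ig (phycoerythrin linked via the Ig tag, 20 nM final) to PD-1-overexpressing Jurkat cells was imaged after a 2 h, 37° C compound pretreatment and 1 hour ligand incubation.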

Q: Which IC50 does the source give for `Cc1cccc(C[C@@H]2NC(=O)[C@H](CC(=O)O)NC(=O)[C@H](Cc3ccc(OCC(=O)O)cc3)NC(=O)[C@H](CCCCNC(=N)N)NC(=O)CSC[C@@H](C(=O)N[C@@H](CCCN)C(=O)NC(CO)C(N)=O)NC(=O)[C@H](CO)NC(=O)C(C(C)C)NC(=O)[C@H](CC3CCCCC3)NC(=O)[C@H](CCN)NC(=O)[C@@H](CC(C)C)NC(=O)[C@H](CCCN)NC(=O)[C@H](CCCNC(N)=O)NC(=O)[C@H](Cc3ccc(-c4ccccc4)cc3)NC(=O)[C@H](C(C)C)NC2=O)c1` (stereo partly drawn) [Compound 2592] ({CH2CO}-[hArg]Y(Carboxymethyl)D[Phe(3-Me)]V[Bip][Cit][Orn][dL][Dab][Cha][ξV]SC[Orn][ξS]-NH2; thioether N-14) here?
A: The IC50 was 15.3 nM.

Q: `Cc1cccc(C[C@@H]2NC(=O)[C@H](CC(=O)O)NC(=O)[C@H](Cc3ccc(OCC(=O)O)cc3)NC(=O)[C@H](CCCCNC(=N)N)NC(=O)CSC[C@@H](C(=O)N[C@@H](CO)C(=O)N[C@@H](CCCCN)C(N)=O)NC(=O)[C@H](CO)NC(=O)[C@H](C(C)C)NC(=O)[C@H](CC3CCCCC3)NC(=O)[C@H](CCN)NC(=O)[C@@H](CC(C)C)NC(=O)[C@H](CCCN)NC(=O)[C@H](CCCNC(N)=O)NC(=O)[C@H](Cc3ccc(-c4ccccc4)cc3)NC(=O)[C@H](C(C)C)NC2=O)c1` [Compound 2593] ({CH2CO}-[hArg]Y(Carboxymethyl)D[Phe(3-Me)]V[Bip][Cit][Orn][dL][Dab][Cha]VSCSK-NH2; thioether N-14) was tested. Which IC50 did it give?
A: The IC50 was 3.9 nM.

Q: With `Cc1cccc(C[C@@H]2NC(=O)[C@H](CC(=O)O)NC(=O)[C@H](Cc3ccc(OCC(=O)O)cc3)NC(=O)[C@H](CCCCNC(=N)N)NC(=O)CSC[C@@H](C(=O)N[C@@H](CCCCN)C(=O)N[C@@H](CO)C(N)=O)NC(=O)[C@H](CO)NC(=O)[C@H](C(C)C)NC(=O)[C@H](CC3CCCCC3)NC(=O)[C@H](CCN)NC(=O)[C@@H](CC(C)C)NC(=O)[C@H](CCCN)NC(=O)[C@H](CCCNC(N)=O)NC(=O)[C@H](Cc3ccc(-c4ccccc4)cc3)NC(=O)[C@H](C(C)C)NC2=O)c1` [Compound 2594] ({CH2CO}-[hArg]Y(Carboxymethyl)D[Phe(3-Me)]V[Bip][Cit][Orn][dL][Dab][Cha]VSCKS-NH2; thioether N-14) as the compound, how does the IC50 read?
A: Its IC50 is 13.1 nM.

Q: `CC(=O)NCCCC[C@@H]1NC(=O)CSC[C@@H](C(=O)N[C@@H](CO)C(N)=O)NC(=O)[C@H](C(C)O)NC(=O)[C@H](C(C)C)NC(=O)[C@H](CC2CCCCC2)NC(=O)[C@H](CCN)NC(=O)[C@@H](CC(C)C)NC(=O)[C@H](CCCN)NC(=O)[C@H](CCCNC(N)=O)NC(=O)[C@H](Cc2ccc(-c3ccccc3)cc2)NC(=O)[C@H](C(C)C)NC(=O)[C@H](Cc2cccc(C)c2)NC(=O)[C@H](CC(=O)O)NC(=O)[C@H](Cc2ccc(OCC(=O)O)cc2)NC1=O` (stereo partly drawn) [Compound 2595] ({CH2CO}-K(Ac)Y(Carboxymethyl)D[Phe(3-Me)]V[Bip][Cit][Orn][dL][Dab][Cha]V[Thr(3ξ)]CS-NH2; thioether N-14) was tested. Which IC50 did it give?
A: Its IC50 is 9.9 nM.

Q: Which IC50 does the source give for `Cc1cccc(C[C@@H]2NC(=O)[C@H](CC(=O)O)NC(=O)[C@H](Cc3ccc(OCC(=O)O)cc3)NC(=O)[C@H](CCCNC(=N)N)NC(=O)CSC[C@@H](C(=O)N[C@@H](CO)C(N)=O)NC(=O)[C@H](CO)NC(=O)[C@H](C(C)C)NC(=O)[C@H](CC3CCCCC3)NC(=O)[C@H](CCCNC(=N)N)NC(=O)[C@@H](CC(C)C)NC(=O)[C@H](CCCN)NC(=O)[C@H](CCCNC(N)=O)NC(=O)[C@H](Cc3ccc(-c4ccccc4)cc3)NC(=O)[C@H](C(C)C)NC2=O)c1` [Compound 2597] ({CH2CO}-RY(Carboxymethyl)D[Phe(3-Me)]V[Bip][Cit][Orn][dL]R[Cha]VSCS-NH2; thioether N-14) here?
A: The IC50 was 12.9 nM.

Q: For `Cc1cccc(C[C@@H]2NC(=O)[C@H](CC(=O)O)NC(=O)[C@H](Cc3ccc(OCC(=O)O)cc3)NC(=O)[C@H](CCCNC(=N)N)NC(=O)CSC[C@@H](C(=O)N[C@@H](CO)C(N)=O)NC(=O)[C@H](CO)NC(=O)[C@H](C(C)O)NC(=O)[C@H](CC3CCCCC3)NC(=O)[C@H](CCN)NC(=O)[C@@H](CC(C)C)NC(=O)[C@H](CCCN)NC(=O)[C@H](CCCNC(N)=O)NC(=O)[C@H](Cc3ccc(-c4ccccc4)cc3)NC(=O)[C@H](C(C)C)NC2=O)c1` (stereo partly drawn) [Compound 2598] ({CH2CO}-RY(Carboxymethyl)D[Phe(3-Me)]V[Bip][Cit][Orn][dL][Dab][Cha][Thr(3ξ)]SCS-NH2; thioether N-14), which IC50 is on record?
A: The IC50 was 14 nM.

Q: `CC(C)C[C@H]1NC(=O)[C@H](CCCN)NC(=O)[C@H](C(C)C)NC(=O)[C@H](Cc2ccc(-c3ccccc3)cc2)NC(=O)[C@H](C(C)C)NC(=O)[C@H](Cc2c[nH]c3ccccc23)NC(=O)[C@H](CC(=O)O)NC(=O)[C@H](Cc2ccc(OCC(=O)O)cc2)NC(=O)[C@H](C(C)O)NC(=O)CSC[C@@H](C(N)=O)NC(=O)[C@H](C(C)O)NC(=O)[C@H](C(C)C)NC(=O)[C@H](CC2CCCCC2)NC(=O)[C@H](CCN)NC1=O` (stereo partly drawn) [Compound 2599] ({CH2CO}-[Thr(3ξ)]Y(Carboxymethyl)DWV[Bip]V[Orn][dL][Dab][Cha]V[Thr(3ξ)]C-NH2; thioether N-14) was tested. Which IC50 did it give?
A: The IC50 was 17.8 nM.

Q: `CC(C)C[C@H]1NC(=O)[C@H](CCCN)NC(=O)[C@H](C(C)C)NC(=O)[C@H](Cc2ccc(-c3ccccc3)cc2)NC(=O)[C@H](C(C)C)NC(=O)[C@H](Cc2c[nH]c3ccccc23)NC(=O)[C@H](CC(=O)O)NC(=O)[C@H](Cc2ccc(OCC(=O)O)cc2)NC(=O)[C@H](C(C)O)NC(=O)CSC[C@@H](C(=O)N[C@@H](CCN)C(N)=O)NC(=O)[C@H](C(C)O)NC(=O)[C@H](C(C)C)NC(=O)[C@H](CC2CCCCC2)NC(=O)[C@H](CCN)NC1=O` (stereo partly drawn) [Compound 2601] ({CH2CO}-[Thr(3ξ)]Y(Carboxymethyl)DWV[Bip]V[Orn][dL][Dab][Cha]V[Thr(3ξ)]C[Dab]-NH2; thioether N-14) was tested. Which IC50 did it give?
A: The IC50 was 12.6 nM.

Q: With `CC(C)C[C@H]1NC(=O)[C@H](CCCN)NC(=O)[C@H](C(C)C)NC(=O)[C@H](Cc2ccc(-c3ccccc3)cc2)NC(=O)[C@H](C(C)C)NC(=O)[C@H](Cc2c[nH]c3ccccc23)NC(=O)[C@H](CC(=O)O)NC(=O)[C@H](Cc2ccc(OCC(=O)O)cc2)NC(=O)[C@H](C(C)O)NC(=O)CSC[C@@H](C(=O)N[C@@H](CO)C(=O)O)NC(=O)[C@H](C(C)O)NC(=O)[C@H](C(C)C)NC(=O)[C@H](CC2CCCCC2)NC(=O)[C@H](CCN)NC1=O` (stereo partly drawn) [Compound 2603] ({CH2CO}-[Thr(3ξ)]Y(Carboxymethyl)DWV[Bip]V[Orn][dL][Dab][Cha]V[Thr(3ξ)]CS-OH; thioether N-14) as the compound, how does the IC50 read?
A: The IC50 was 17.6 nM.

Q: How did the IC50 turn out when `CC(C)C[C@@H]1NC(=O)[C@H](Cc2c[nH]c3ccccc23)NC(=O)[C@H](CC(=O)O)NC(=O)[C@H](Cc2ccc(OCC(=O)O)cc2)NC(=O)[C@H](C(C)O)NC(=O)CSC[C@@H](C(N)=O)NC(=O)[C@H](CO)NC(=O)[C@H](C(C)C)NC(=O)[C@H](CC2CCCCC2)NC(=O)[C@H](Cc2cnc[nH]2)NC(=O)[C@@H](CC(C)C)NC(=O)[C@H](Cc2cnc[nH]2)NC(=O)[C@H](C(C)C)NC(=O)[C@H](Cc2ccc(-c3ccccc3)cc2)NC1=O` (stereo partly drawn) [Compound 2604] ({CH2CO}-[Thr(3ξ)]Y(Carboxymethyl)DWL[Bip]VH[dL]H[Cha]VSC-NH2; thioether N-14) was run?
A: The IC50 was 234 nM.

Q: Which IC50 does the source give for `Cc1cccc(C[C@@H]2NC(=O)[C@H](CC(=O)O)NC(=O)[C@H](Cc3ccc(OCC(=O)O)cc3)NC(=O)[C@H](C(C)O)NC(=O)CSC[C@@H](C(N)=O)NC(=O)[C@H](C(C)O)NC(=O)[C@H](C(C)C)NC(=O)[C@H](CC3CCCCC3)NC(=O)[C@H](CCN)NC(=O)[C@@H](CC(C)C)NC(=O)[C@H](CCCN)NC(=O)[C@H](C(C)C)NC(=O)[C@H](Cc3ccc(-c4ccccc4)cc3)NC(=O)[C@H](C(C)C)NC2=O)c1` (stereo partly drawn) [Compound 2605] ({CH2CO}-[Thr(3ξ)]Y(Carboxymethyl)D[Phe(3-Me)]V[Bip]V[Orn][dL][Dab][Cha]V[Thr(3ξ)]C-NH2; thioether N-14) here?
A: The IC50 was 18.9 nM.

Q: How did the IC50 turn out when `CC(=O)NCCCC[C@@H]1NC(=O)[C@H](Cc2ccc(-c3ccccc3)cc2)NC(=O)[C@H](CC(C)C)NC(=O)[C@H](Cc2c[nH]c3ccccc23)NC(=O)[C@H](CC(=O)O)NC(=O)[C@H](Cc2ccc(OCC(=O)O)cc2)NC(=O)[C@H](C(C)O)NC(=O)CSC[C@@H](C(N)=O)NC(=O)[C@H](C(C)O)NC(=O)[C@H](C(C)C)NC(=O)[C@H](CC2CCCCC2)NC(=O)[C@H](CCC(=O)O)NC(=O)[C@@H](CC(C)C)NC(=O)[C@H](CCC(=O)O)NC1=O` (stereo partly drawn) [Compound 2607] ({CH2CO}-[Thr(3ξ)]Y(Carboxymethyl)DWL[Bip]K(Ac)E[dL]E[Cha]V[Thr(3ξ)]C-NH2; thioether N-14) was run?
A: The IC50 was 389 nM.

Q: How did the IC50 turn out when `CC(C)C[C@@H]1NC(=O)[C@H](Cc2c[nH]c3ccccc23)NC(=O)[C@H](CC(=O)O)NC(=O)[C@H](Cc2ccc(OCC(=O)O)cc2)NC(=O)[C@H](C(C)O)NC(=O)CSC[C@@H](C(N)=O)NC(=O)[C@H](CO)NC(=O)[C@H](C(C)C)NC(=O)[C@H](CC2CCCCC2)NC(=O)[C@H](CCC(=O)O)NC(=O)[C@@H](CC(C)C)NC(=O)[C@H](Cc2cnc[nH]2)NC(=O)[C@H](C(C)C)NC(=O)[C@H](Cc2ccc(-c3ccccc3)cc2)NC1=O` (stereo partly drawn) [Compound 2608] ({CH2CO}-[Thr(3ξ)]Y(Carboxymethyl)DWL[Bip]VH[dL]E[Cha]VSC-NH2; thioether N-14) was run?
A: Its IC50 is 118 nM.

Same assay, conditions: read-out: Jurkat HPD1_PDL1 IC50; Jurkat-PD-1 cells, PE-labeled PD-L1-Ig 20 nM final

Q: Which IC50 does the source give for `CC(=O)NCC[C@@H]1NC(=O)[C@H](Cc2ccc(-c3ccccc3)cc2)NC(=O)[C@H](C(C)C)NC(=O)[C@H](Cc2c[nH]c3ccccc23)NC(=O)[C@H](CC(=O)O)NC(=O)[C@H](Cc2ccc(OCC(=O)O)cc2)NC(=O)[C@H](C(C)O)NC(=O)CSC[C@@H](C(N)=O)NC(=O)[C@H](C(C)O)NC(=O)[C@H](C(C)C)NC(=O)[C@H](CC2CCCCC2)NC(=O)[C@H](CCN)NC(=O)[C@@H](CC(C)C)NC(=O)[C@H](CCCN)NC1=O` (stereo partly drawn) [Compound 2606] ({CH2CO}-[Thr(3ξ)]Y(Carboxymethyl)DWV[Bip][Dab](Ac)[Orn][dL][Dab][Cha]V[Thr(3ξ)]C-NH2; thioether N-14) here?
A: The IC50 was 76.4 nM.
